Legend:
[1] = Body weight and body weight gain of high-fat diet mice; format: in vivo, mice (C57BL/6); details: sample in drinking water, metformin 250 mg/kg
Description: (§1) Using 8-week-old male mice (C57BL/6) (purchased from CoreTech), anti-diabetic candidate materials were evaluated using a GTT (Glucose Tolerance Test) that is a typical method for diagnosis of diabetes.
(§2) Mice were housed at a temperature of 22±2° C. and a relative humidity of 55-60% with 12-hr light/12-hr dark cycles. Five animals were allotted to each group, and mice from the same mother were grouped into one group, because male mice tend to fight together.
(§3) As feed, high-fat diet (60% of calories from fat; Research Diet Inc., New Brunswick, N.J.) and water were fed ad libitum for 10 weeks. Herein, the water fed contained the samples prepared in Examples 1-2 (3), 2-1, 2-4-1, 2-4-2 and 2-5. As a positive control, metformin (M-072, Sigma) (250 mg/kg) was used, and as a control, the samples prepared in Comparative Examples 1-1, 2-3-2, 2-5-1, 2-5-2 and 2-6 were used.
(§4) For reference, each of the samples prepared in Examples 2-4-1, 2-4-2 and 2-5 was set to the amount to be taken by an adult (60 kg) for 3 days, and the amount was converted into a mouse dose (12-fold/kg, see the US NIH guidance), thereby preparing animal feed. Namely, the amount to be taken by an adult (60 kg) for 3 days is 180-day dose/kg, which corresponds to 15-day dose/kg for mice. Thus, the amount corresponds to 750-day dose/mouse (20 g), because the average weight of mice is about 20 g. Thus, one mouse was allowed to take 1/750 of the prepared sample each day.
(§5) In addition, each of the samples prepared in Examples 1-2 (3) and 2-1 was set to the amount to be taken by an adult (60 kg) for 2 days, and the amount was converted into a mouse dose (12-fold/kg, see the US NIH guidance), thereby preparing animal feed. Namely, the amount to be taken by an adult (60 kg) for 2 days is 120-day dose/kg, which corresponds to 10-day dose/kg for mice. Thus, the amount corresponds to 500-day dose/mouse (20 g), because the average weight of mice is about 20 g. Thus, one mouse was allowed to take 1/500 of the prepared sample each day.
The diet intake and the body weight gain were measured weekly for 8 weeks. The body weight and the diet intake were measured immediately before first drug administration, and then measured at one-week intervals.
(§6) Meanwhile, experimental analysis results were expressed as mean±S.E.M., and the significance between test groups was statistically processed using Student T-TEST, and then the significance was verified at *P<0.05.

[2] = Scanning electron microscope (SEM) analysis, particle size; format: physicochemical
From the text: For reference, an analysis instrument and analysis conditions are as follows. (1) Analysis instrument: HITACHI (S-2700), Japan (2) Electron gun: Tungsten filament type (3) Resolution: 4.0 nm (4) Accelerating voltage: 15.0 kV.

[3] = Blood biochemistry (triglyceride, AST, ALT) in high-fat diet mice; format: in vivo, mice (C57BL/6)
Description: as §1, §3
In blood biochemistry, insulin (AKRIN-011T, Shibayagi, Japan), glucose (AM202, Asan Pharmaceutical Co., Ltd., Korea), triglyceride (AM157, Asan Pharmaceutical Co., Ltd.), total cholesterol (AM202, Asan Pharmaceutical Co., Ltd.), AST and ALT (Asan Pharmaceutical Co., Ltd.) were analyzed using enzymatic assay kits.
(§7) At 10 weeks of high-fat diet feeding, the mice were sacrificed by cervical dislocation to obtain serum. For histological examination, the liver, white adipose tissue (WAT), brown adipose tissue (BAT) and kidney were fixed with formalin (50-00-0, Junsei, Japan), and the remaining organs were stored at −70° C. The blood sampled from the heart was coagulated to obtain serum which was then stored at −70° C.
as §6

[4] = Glucose tolerance test (GTT) in high-fat diet mice; format: in vivo, mice (C57BL/6); details: for Glucose level (mg/dl), Mean: GTT, high-fat diet mice
Description: as §1, §2, §3, §4, §5
At 8 weeks of high-fat diet feeding, a glucose tolerance test (GTT) was performed. For 8 hours for the test, mice were fasted. Then, blood was sampled from the tail vein, and initial blood glucose levels were measured with a blood glucose meter (AUTO-CHEK, Diatech Korea). Then, glucose was administered intraperitoneally to the mice at a concentration of 1 g/kg, and after 30 min, 60 min, 90 min and 120 min, blood was sampled from the mice, followed by measurement of blood glucose levels (each group consisting of five animals).
as §6

[5] = Thermogravimetric analysis (TGA); format: physicochemical; details: first-order differentiation of TGA; N2, 20° C./min
Description: For reference, an analysis instrument and analysis conditions are as follows. (1) Analysis instrument: TGA 7 (Perkin-Elmer) (2) Atmosphere: N2 gas (3) Heating rate: 20° C./min (4) Range: 50 to 600° C.

[6] = test system: liver, white adipose tissue (WAT), brown adipose tissue (BAT) and kidney; assay: Histological examination of high-fat diet mice; format: in vivo, mice (C57BL/6); details: 10 weeks of high-fat diet feeding
Description: as §7
For histological examination, the major organs and adipose were fixed in 4% neutral buffered formalin and embedded in paraffin blocks, and the paraffin blocks were sectioned at 5 μm and stained with hymatoxylin (MHS-16, Sigma-Aldrich, USA) and eosin (HT110116, Sigma-Aldrich). The prepared tissue samples were mounted in glycerin gel mounting media (SP15-100, Fisher Scientific, USA), covered with cover glass, and observed with a microscope (IX71, OLYMPUS, USA). The tissue was imaged with the camera equipped in the microscope.

Average particle size [2]: 190.84 μm
Median particle size [2]: 122.47 μm
Final decomposition temperature [5]: 396 °C
First decomposition temperature [5]: 359 °C
Compound: NCCS(=O)(=O)O [DT15, modified taurine]
Body weight gain, Mean ([1]; 1 week): 2.65 g
Body weight, Mean ([1]; 1 week): 20.30 g
Body weight gain, Mean ([1]; 2 weeks): 4.40 g
Body weight, Mean ([1]; 2 weeks): 22.05 g
Body weight gain, Mean ([1]; 3 weeks): 6.28 g
Body weight, Mean ([1]; 3 weeks): 23.93 g
Body weight gain, Mean ([1]; 4 weeks): 7.53 g
Body weight, Mean ([1]; 4 weeks): 25.18 g
Body weight gain, Mean ([1]; 5 weeks): 8.38 g
Body weight, Mean ([1]; 5 weeks): 26.03 g
Body weight gain, Mean ([1]; 6 weeks): 10.25 g
Body weight, Mean ([1]; 6 weeks): 27.90 g
Body weight gain, Mean ([1]; 7 weeks): 11.10 g
Body weight, Mean ([1]; 7 weeks): 28.75 g
Body weight, Mean ([1]; 8 weeks): 29.23 g
Body weight, Mean ([1]; before administration): 17.65 g
ALT level [3]: lower than those of DT19
AST level [3]: lower than those of DT19
Triglyceride level [3]: significantly lower than that of DT19 (taurine)
ALT level (IU/L), Mean ([3]; blood): 14.02 IU/L
AST level (IU/L), Mean ([3]; blood): 98.96 IU/L
Triglyceride level (mg/dl), Mean ([3]; blood): 53.62 mg/dL
Glucose level (mg/dl), Mean ([4]; 0 min): 121.25 mg/dL
Glucose level (mg/dl), Mean ([4]; 30 min): 335.25 mg/dL
Glucose level (mg/dl), Mean ([4]; 60 min): 295.25 mg/dL
Glucose level (mg/dl), Mean ([4]; 90 min): 193.75 mg/dL
Glucose level (mg/dl), Mean ([4]; 120 min): 126.25 mg/dL
Fasting glucose level ([4]; at 8 weeks of high-fat diet feeding, 8 hours fasted): lower than that of the mice administered with high-fat diet (HFD), and were similar to the blood glucose levels of normal mice
Glucose control ability in GTT ([4]; at 8 weeks of high-fat diet feeding, glucose 1 g/kg intraperitoneally, 30-120 min): significantly higher than that of the group administered with HFD alone
Accumulation of adipose in brown adipose tissue [6]: decreased
Development of fatty liver [6]: decreased
Nephrotoxicity ([6]; kidney tissue): did not appear
